Biological target: T1, recombinant His-tag Y220C p53 DBD protein (Homo sapiens, UniProt P04637, Y220C)
T1 construct: recombinant His-tag Y220C p53 DBD protein (amino acids #˜94-312)
Assay: In vitro DNA binding activity assay (TR-FRET): binding of His-tag Y220C p53 DBD to biotin-labeled consensus DNA
Assay type: biochemical
Details: for Y220C SC150 (μM): SC150 = concentration to increase DNA binding by […], His-tag Y220C p53 DBD, biotin-labeled consensus DNA; for SC150 (μM): concentration to increase DNA binding by […], incubated at either 27° C. or 29° C. for 60 min

| Y220C SC150 (μM) | SC150 (μM) | Structure (SMILES) |
| --- | --- | --- |
| * (* = 0 μM ≤ SC150 < 0.1 μM) |  | CN1CC[C@@H](Nc2cccc3c2cc(-c2noc(CNC(=O)c4cnn(C5CCCC5OCCF)c4)n2)n3CC(F)(F)F)[C@@H](F)C1 (stereo in doubt) [Compound 377B, N-{[3-(4-{[(3S,4R)-3-fluoro-1-methylpiperidin-4-yl]amino}-1-(2,2,2-trifluoroethyl)-1H-indol-2-yl)-1,2,4-oxadiazol-5-yl]methyl}-1-[(1R,2R)-2-(2-fluoroethoxy)cyclopentyl]-1H-pyrazole-4-carboxamide] |
| * (* = 0 μM ≤ SC150 < 0.1 μM) |  | CN1CC[C@@H](Nc2cccc3c2cc(-c2noc(CNC(=O)c4ccn(C5CCCC5OCCF)c4)n2)n3CC(F)(F)F)[C@@H](F)C1 (stereo in doubt) [Compound 381B, N-{[3-(4-{[(3S,4R)-3-fluoro-1-methylpiperidin-4-yl]amino}-1-(2,2,2-trifluoroethyl)-1H-indol-2-yl)-1,2,4-oxadiazol-5-yl]methyl}-1-[(1R,2R)-2-(2-fluoroethoxy)cyclopentyl]-1H-pyrrole-3-carboxamide] |
| * (* = 0 μM ≤ SC150 < 0.1 μM) |  | CN1CC[C@@H](Nc2cccc3c2cc(-c2noc(CNC(=O)c4ccn(C5CCCC5F)c4)n2)n3CC(F)(F)F)[C@@H](F)C1 (stereo in doubt) [Compound 392B, N-{[3-(4-{[(3S,4R)-3-fluoro-1-methylpiperidin-4-yl]amino}-1-(2,2,2-trifluoroethyl)-1H-indol-2-yl)-1,2,4-oxadiazol-5-yl]methyl}-1-[(1R,2R)-2-fluorocyclopentyl]-1H-pyrrole-3-carboxamide] |
| * (* = 0 μM ≤ SC150 < 0.1 μM) |  | CC(C)(C)N1CCC(Nc2cccc3c2cc(-c2noc(CNC(=O)c4cnn(C(C)(C)C)c4)n2)n3CC(F)(F)F)[C@@H](F)C1 (stereo in doubt) [Compound 400B, 1-tert-butyl-N-{[3-(4-{[(3S,4R)-1-tert-butyl-3-fluoropiperidin-4-yl]amino}-1-(2,2,2-trifluoroethyl)-1H-indol-2-yl)-1,2,4-oxadiazol-5-yl]methyl}-1H-pyrazole-4-carboxamide] |
| * (* = 0 μM ≤ SC150 < 0.1 μM) |  | COC1CCCC1n1ccc(C(=O)NCc2nc(-c3cc4c(N[C@@H]5CN(C)CC[C@@H]5F)cccc4n3CC(F)(F)F)no2)c1 (stereo in doubt) [Compound 410B, N-{[3-(4-{[(3R,4S)-4-fluoro-1-methylpiperidin-3-yl]amino}-1-(2,2,2-trifluoroethyl)-1H-indol-2-yl)-1,2,4-oxadiazol-5-yl]methyl}-1-[(1R,2R)-2-methoxycyclopentyl]-1H-pyrrole-3-carboxamide] |
| * (* = 0 μM ≤ SC150 < 0.1 μM) |  | CC1(n2ccc(C(=O)NCc3nc(-c4cc5c(N[C@@H]6CCOC[C@@H]6F)cccc5n4CC(F)(F)F)no3)c2)CCOCC1 (stereo in doubt) [Compound 491B] |
| * (* = 0 μM ≤ SC150 < 0.1 μM) |  | CC1(n2ccc(C(=O)NCc3nc(-c4cc5c(N[C@@H]6CCOC[C@@H]6F)cccc5n4CC(F)(F)F)no3)c2)CCOCC1 (stereo in doubt) [Compound 494B, N-((3-(4-(((3R,4R)-3-fluorotetrahydro-2H-pyran-4-yl)amino)-1-(2,2,2-trifluoroethyl)-1H-indol-2-yl)-1,2,4-oxadiazol-5-yl)methyl)-1-(4-methyltetrahydro-2H-pyran-4-yl)-1H-pyrrole-3-carboxamide] |
| * (* = 0 μM ≤ SC150 < 0.1 μM) |  | C[C@@H]1CN(C)CC[C@@H]1Nc1cccc2c1cc(-c1noc(CNC(=O)c3ccc(C(C)(C)O)s3)n1)n2CC(F)(F)F (stereo in doubt) [Compound 515B, N-{[3-(4-{[(3R,4S)-1,3-dimethylpiperidin-4-yl]amino}-1-(2,2,2-trifluoroethyl)-1H-indol-2-yl)-1,2,4-oxadiazol-5-yl]methyl)-5-(2-hydroxypropan-2-yl)thiophene-2-carboxamide] |
| * (* = 0 μM ≤ SC150 < 0.1 μM) |  | CC1CN(c2nc(C(=O)NCc3nc(-c4cc5c(N[C@@H]6CCN(C)C[C@@H]6F)cccc5n4CC(F)(F)F)no3)cs2)C[C@H](C)O1 (stereo in doubt) [Compound 517B, 2-[(2S,6S)-2,6-dimethylmorpholin-4-yl]-N-{[3-(4-{[(3S,4R)-3-fluoro-1-methylpiperidin-4-yl]amino}-1-(2,2,2-trifluoroethyl)-1H-indol-2-yl)-1,2,4-oxadiazol-5-yl]methyl}-1,3-thiazole-4-carboxamide] |
|  | ++++ (++++ = 10 μM ≤ SC150 < 35 μM) | NC(=O)c1ccc(-c2cc3c(NC4CCS(=O)(=O)CC4)cccc3n2CC(F)(F)F)cc1 [Compound 1A, 4-{4-[(1,1-dioxo-1λ^6-thian-4-yl)amino]-1-(2,2,2-trifluoroethyl)-1H-indol-2-yl}benzamide] |
|  | +++ (+++ = 5 μM ≤ SC150 < 10 μM) | NCc1ccc(-c2cc3c(NC4CCS(=O)(=O)CC4)cccc3n2CC(F)(F)F)cc1 [Compound 2A, 4-({2-[4-(aminomethyl)phenyl]-1-(2,2,2-trifluoroethyl)-1H-indol-4-yl}amino)-1λ^6-thiane-1,1-dione] |
|  | +++ (+++ = 5 μM ≤ SC150 < 10 μM) | CNCc1ccc(-c2cc3c(NC4CCS(=O)(=O)CC4)cccc3n2CC(F)(F)F)cc1 [Compound 3A, 4-[(2-{4-[(methylamino)methyl]phenyl}-1-(2,2,2-trifluoroethyl)-1H-indol-4-yl)amino]-1λ^6-thiane-1,1-dione] |
|  | +++ (+++ = 5 μM ≤ SC150 < 10 μM) | CN(Cc1ccc(-c2cc3c(NC4CCS(=O)(=O)CC4)cccc3n2CC(F)(F)F)cc1)C(=O)OC(C)(C)C [Compound 4A, tert-butyl N-[(4-{4-[(1,1-dioxo-1λ^6-thian-4-yl)amino]-1-(2,2,2-trifluoroethyl)-1H-indol-2-yl}phenyl)methyl]-N-methylcarbamate] |
|  | ++++ (++++ = 10 μM ≤ SC150 < 35 μM) | CNC(=O)c1ccc(-c2cc3c(NC4CCS(=O)(=O)CC4)cccc3n2CC(F)(F)F)cc1 [Compound 5A, 4-{4-[(1,1-dioxo-1λ^6-thian-4-yl)amino]-1-(2,2,2-trifluoroethyl)-1H-indol-2-yl}-N-methylbenzamide] |
|  | ++ (++ = 2 μM ≤ SC150 < 5 μM) | CC(C)(C)OC(=O)NCc1ccc(-c2cc3c(NC4CCS(=O)(=O)CC4)cccc3n2CC(F)(F)F)cc1 [Compound 6A, tert-butyl N-[(4-{4-[(1,1-dioxo-1λ^6-thian-4-yl)amino]-1-(2,2,2-trifluoroethyl)-1H-indol-2-yl}phenyl)methyl]carbamate] |
|  | ++ (++ = 2 μM ≤ SC150 < 5 μM) | CC(C)(C#N)c1ccc(NCc2ccc(-c3cc4c(NC5CCS(=O)(=O)CC5)cccc4n3CC(F)(F)F)cc2)cn1 [Compound 7A, 2-(5-{[(4-{4-[(1,1-dioxo-1λ^6-thian-4-yl)amino]-1-(2,2,2-trifluoroethyl)-1H-indol-2-yl}phenyl)methyl]amino}pyridine-2-yl)-2-methylpropanenitrile] |
|  | + (+ = 0 μM ≤ SC150 < 2 μM) | CS(=O)(=O)c1ccc(NCc2ccc(-c3cc4c(NC5CCS(=O)(=O)CC5)cccc4n3CC(F)(F)F)cc2)cc1 [Compound 8A, 4-{[2-(4-{[(4-methanesulfonylphenyl)amino]methyl}phenyl)-1-(2,2,2-trifluoroethyl)-1H-indol-4-yl]amino}-1λ^6-thiane-, 1-dione] |
|  | +++ (+++ = 5 μM ≤ SC150 < 10 μM) | O=S1(=O)CCC(Nc2cccc3c2cc(-c2ccc(CNc4ccccc4)cc2)n3CC(F)(F)F)CC1 [Compound 9A, 4-[(2-{4-[(phenylamino)methyl]phenyl}-1-(2,2,2-trifluoroethyl)-1H-indol-4-yl)amino]-1λ^6-thiane-1,1-dione] |
|  | ++++ (++++ = 10 μM ≤ SC150 < 35 μM) | N#Cc1cccc(-c2cc3c(NC4CCS(=O)(=O)CC4)cccc3n2CC(F)(F)F)c1 [Compound 10A, 3-{4-[(1,1-dioxo-1λ^6-thian-4-yl)amino]-1-(2,2,2-trifluoroethyl)-1H-indol-2-yl}benzonitrile] |
|  | ++++ (++++ = 10 μM ≤ SC150 < 35 μM) | Cc1ccc(-c2cc3c(NC4CCS(=O)(=O)CC4)cccc3n2CC(F)(F)F)c(F)c1 [Compound 11A, 4-{[2-(2-fluoro-4-methylphenyl)-1-(2,2,2-trifluoroethyl)-1H-indol-4-yl]amino}-1λ^6-thiane-1,1-dione] |
|  | ++++ (++++ = 10 μM ≤ SC150 < 35 μM) | O=S1(=O)CCC(Nc2cccc3c2cc(-c2cccc(Cl)c2)n3CC(F)(F)F)CC1 [Compound 12A, 4-{[2-(3-chlorophenyl)-1-(2,2,2-trifluoroethyl)-1H-indol-4-yl]amino}-1λ^6-thiane-1,1-dione] |
|  | +++ (+++ = 5 μM ≤ SC150 < 10 μM) | COc1cccc(-c2cc3c(NC4CCS(=O)(=O)CC4)cccc3n2CC(F)(F)F)c1 [Compound 13A, 4-{[2-(3-methoxyphenyl)-1-(2,2,2-trifluoroethyl)-1H-indol-4-yl]amino}-1λ^6-thiane-1,1-dione] |
|  | ++++ (++++ = 10 μM ≤ SC150 < 35 μM) | O=S1(=O)CCC(Nc2cccc3c2cc(-c2ccc(Cl)cc2)n3CC(F)(F)F)CC1 [Compound 14A, 4-{[2-(4-chlorophenyl)-1-(2,2,2-trifluoroethyl)-1H-indol-4-yl]amino}-1λ^6-thiane-1,1-dione] |
| **** (**** = 1 μM ≤ SC150 < 10 μM) |  | Cn1ccc(-c2cc3c(NC4CCS(=O)(=O)CC4)cccc3n2CC(F)(F)F)n1 [Compound 14B, 4-{[2-(1-methyl-1H-pyrazol-3-yl)-1-(2,2,2-trifluoroethyl)-1H-indol-4-yl]amino}-1λ^6-thiane-1,1-dione] |
|  | +++ (+++ = 5 μM ≤ SC150 < 10 μM) | CC(C)(C)c1ccc(C(=O)NCc2ccc(-c3cc4c(NC5CCS(=O)(=O)CC5)cccc4n3CC(F)(F)F)cc2)cc1 [Compound 15A, 4-tert-butyl-N-[(4-{4-[(1,1-dioxo-1λ^6-thian-4-yl)amino]-1-(2,2,2-trifluoroethyl)-1H-indol-2-yl}phenyl)methyl]benzamide] |
| **** (**** = 1 μM ≤ SC150 < 10 μM) |  | O=S1(=O)CCC(Nc2cccc3c2cc(-c2cnn(CCO)c2)n3CC(F)(F)F)CC1 [Compound 15B, 4-({2-[1-(2-hydroxyethyl)-1H-pyrazol-4-yl]-1-(2,2,2-trifluoroethyl)-1H-indol-4-yl}amino)-1λ^6-thiane-1,1-dione] |

Reference: US11807644B2 (PMV Pharmaceuticals, Inc., priority 2020, dated 2023)
